Experimental data published in article PMC13308190, “Endothelial progenitor cell susceptibility to DNA damaging and DDR-modulating compounds determines endothelial differentiation accuracy” (Stem Cell Research & Therapy, 2026).

Legend:
Type in all cases: cell-based, mouse
mESC [1] = experiment: RT-qPCR mRNA expression; settings: for Cdkn1a mRNA / Cdkn2a mRNA / Glb1 mRNA / Il6 mRNA / Il8 mRNA / Tp53 mRNA: Fig 7A; for Brca1 mRNA / Chk1 mRNA / Rad51 mRNA / Pgc1a mRNA: mESC + 20 µM 24 h; for Brca1 mRNA / Chk1 mRNA / Rad51 mRNA: Fig 5C; for Pgc1a mRNA: Fig 6D
Procedure: (§1) Total RNA was purified using the RNeasy Mini Kit (Qiagen, Hilden, Germany). Reverse transcriptase (RT) reaction was performed with the HighCapacity cDNA Reverse Transcription Kit (Applied Biosystems, Darmstadt, Germany) using 900–2000 ng of RNA. Quantitative RT-qPCR analysis was performed using following conditions: (1) 95 °C–10 min; (2) 45 amplification cycles with 95 °C–15 s, 55 °C–15 s, and 72 °C–17 s; (3) 95 °C–1 min, 55 °C–1 min, 65 °C–5 s. If not stated otherwise, analyses were performed in technical triplicates using pooled samples from two independent experiments (each performed with biological duplicates) by use of a CFX96 cycler (BioRad) and the SensiMix SYBR Kit (Bioline, London, UK). The primers used for mRNA expression analyses are listed in Supplementary Table 1. To ensure the specificity of the amplification product, melting curves were recorded at the end of the run. mRNA expression levels were normalized to β-Actin and Gapdh. Relative mRNA expression in mESC or corresponding untreated controls was set to 1.0. Only changes in gene expression of ≤ 0.5- and ≥ 2-fold were considered as biologically relevant. Fold-changes in gene expression are summarized in Supplementary Table 2.

mESC [2] = experiment: Nuclear γH2AX / 53BP1 foci (DSB); settings: mESC 24 h, equitoxic concentrations
Procedure: (§2) DNA double-strand breaks were monitored by immunocytochemical detection of nuclear γH2AX and 53BP1 foci. Cells were fixed with 3.7% formaldehyde/PBS (15 min, RT) and permeabilized (0.3% TritonX/PBS; 15 min, RT). […] Cell suspension was mixed with 0.5% low melting point agarose and applied onto glass slides coated with 1.5% agarose. After lysis in alkaline buffer (pH 10, 1 h, 4 °C, protected from light) and DNA denaturation in precooled electrophoresis buffer (pH > 13, 25 min, 4 °C, protected from light) electrophoresis was performed (300 mA, 25 V, 4 °C, 25 min).

EC d4 [3] = experiment: Nuclear γH2AX / 53BP1 foci (DSB); settings: EC d4 48 h, equitoxic concentrations
Procedure: as §2

EC d4 [4] = experiment: EdU incorporation (S-phase activity); settings: EC d4 48 h
Procedure: S-phase activity of cells was monitored by measuring EdU incorporation using the EdU-Click 488 assay according to the manufacturer’s protocol. Briefly, cells were pulse-treated with 5-ethynyl-2′-deoxyuridine (EdU) for 3 h. Alexa Fluor 488-conjugated reaction cocktail was added (30 min, RT) and nuclei were counterstained with DAPI. The percentage of EdU-positive area/DAPI-positive area was calculated by fluorescence microscopy (Olympus BX43, 20x objective).

EC d6 = experiment: ZO1 tight junction immunofluorescence; settings: analysed 2 days later
[5] = tested on: EC d6 (endothelial-like cells); experiment: RT-qPCR mRNA expression; settings: for Cdkn1a mRNA / Cdkn2a mRNA / Glb1 mRNA / Il6 mRNA / Il8 mRNA / Tp53 mRNA: Fig 7C; for Brca1 mRNA / Chk1 mRNA / Rad51 mRNA / Pgc1a mRNA / Cldn5 mRNA / Ocln mRNA / Tjp1 mRNA: EC d6 + 20 µM 24 h; for Brca1 mRNA / Chk1 mRNA / Rad51 mRNA: Fig 5C; for Pgc1a mRNA: Fig 6D; for Cldn5 mRNA / Ocln mRNA / Tjp1 mRNA: Fig 8C
Procedure: as §1, with “relevant.” for “relevant. Fold-changes in gene expression are summarized in Supplementary Table 2.”

EC d4 [6] = experiment: Dil-acLDL uptake; settings: EC d4 treated 48 h
Procedure: To monitor prototypical functions of endothelial cells, the uptake of fluorescent 1,1-dioctadecyl-3,3,3,3-tetra-methylindocarbocyanine-labeled acetylated LDL (Dil-acLDL) was examined. Briefly, cells were incubated with Dil-acLDL (10 µg/ml, 4 h, 37 °C). After fixation (3.7% cold formaldehyde/PBS (15 min, RT) nuclei were counterstained with DAPI. The uptake of DiI-acLDL was analyzed by fluorescence microscopy (Olympus BX43, 20x objective). Additionally, the response of differentiated EC to inflammatory cytokines was measured. After treatment with a pro-inflammatory cytokine mixture (TNFα/IL-1β, 10 ng/mL) for 1 h, mRNA expression of activated EC markers E-selectin, Icam-1, Vcam-1, Ccl2, eNos, iNos was analyzed (RT-qPCR).

[7] = mESC + 10 µM 24 h + 24 h post incubation
[8] = EC d6 + 10 µM 24 h + 24 h post incubation
[9] = EC d6 + 20 µM 24 h + 24 h post incubation
[10] = mESC + 20 µM 24 h + 24 h post incubation

Row | SMILES | Cdkn1a mRNA (mESC [1]; [7]) | Cdkn2a mRNA (mESC [1]; [7]) | Glb1 mRNA (mESC [1]; [7]) | Il6 mRNA (mESC [1]; [7]) | Il8 mRNA (mESC [1]; [7]) | Tp53 mRNA (mESC [1]; [7]) | Brca1 mRNA (mESC [1]) | Chk1 mRNA (mESC [1]) | Rad51 mRNA (mESC [1]) | Pgc1a mRNA (mESC [1]) | nuclear γH2AX foci (mESC [2]) | DSB numbers (γH2AX / 53BP1 foci) (EC d4 [3]) | S-phase activity (EdU-positive cells) (EC d4 [4]) | ZO1 assembly in treated EC d6 (EC d6) | Cdkn1a mRNA [5, 8] | Cdkn2a mRNA [5, 8] | Glb1 mRNA [5, 8] | Il6 mRNA [5, 8] | Il8 mRNA [5, 8] | Tp53 mRNA [5, 8] | also measured
1 | Nc1ccccc1NC(=O)c1ccc(CNC(=O)OCc2cccnc2)cc1 [EST, entinostat] | 2.08 Fold of untreated control | 5.82 Fold of untreated control | 0.47 Fold of untreated control | 6.25 Fold of untreated control | 0.83 Fold of untreated control | 0.83 Fold of untreated control | 0.52 Fold of mESC | 0.27 Fold of mESC | 0.29 Fold of mESC | 184.58 Fold of untreated control | significant increase | clear increase | not | clearly visible gaps | 1.91 Fold of untreated control | 1.85 Fold of untreated control | 3.60 Fold of untreated control | 1.19 Fold of untreated control | 0.24 Fold of untreated control | 0.82 Fold of untreated control | Cdkn1a mRNA [5, 9]: 2.49 Fold of untreated control; Cdkn2a mRNA [5, 9]: 2.02 Fold of untreated control; Glb1 mRNA [5, 9]: 5.40 Fold of untreated control; Il6 mRNA [5, 9]: 2.47 Fold of untreated control; Il8 mRNA [5, 9]: 0.48 Fold of untreated control; Tp53 mRNA [5, 9]: 0.96 Fold of untreated control; Brca1 mRNA [5]: 0.19 Fold of mESC; Chk1 mRNA [5]: 0.44 Fold of mESC; Rad51 mRNA [5]: 0.11 Fold of mESC; Pgc1a mRNA [5]: 5.75 Fold of untreated control; Cldn5 mRNA [5]: 2.16 Fold of EC d4 or d6; Ocln mRNA [5]: 1.62 Fold of EC d4 or d6; Tjp1 mRNA [5]: 1.46 Fold of EC d4 or d6
2 | O=c1c2ccccc2nc(/C=C/c2cccnc2)n1Cc1ccccc1 [B02] | 0.89 Fold of untreated control | 0.97 Fold of untreated control | 1.06 Fold of untreated control | 0.98 Fold of untreated control | 0.76 Fold of untreated control | 1.09 Fold of untreated control | 0.95 Fold of mESC | 1.33 Fold of mESC | 0.90 Fold of mESC | 2.40 Fold of untreated control | significant increase | clear increase | decrease in S-phase activity | clearly visible gaps | 1.67 Fold of untreated control | 0.64 Fold of untreated control | 0.88 Fold of untreated control | 0.85 Fold of untreated control | 0.52 Fold of untreated control | 0.97 Fold of untreated control | LDL uptake in EC d6 progeny of treated EC d4 (EC d4 [6]): strongest functional defect; Cdkn1a mRNA (mESC [1]; [10]): 0.94 Fold of untreated control; Cdkn2a mRNA (mESC [1]; [10]): 0.89 Fold of untreated control; Glb1 mRNA (mESC [1]; [10]): 1.06 Fold of untreated control; Il6 mRNA (mESC [1]; [10]): 1.35 Fold of untreated control; Il8 mRNA (mESC [1]; [10]): 0.93 Fold of untreated control; Tp53 mRNA (mESC [1]; [10]): 0.98 Fold of untreated control; Cdkn1a mRNA [5, 9]: 2.28 Fold of untreated control; Cdkn2a mRNA [5, 9]: 1.15 Fold of untreated control; Glb1 mRNA [5, 9]: 1.64 Fold of untreated control; Il6 mRNA [5, 9]: 1.79 Fold of untreated control; Il8 mRNA [5, 9]: 0.32 Fold of untreated control; Tp53 mRNA [5, 9]: 1.27 Fold of untreated control; Brca1 mRNA [5]: 0.51 Fold of mESC; Chk1 mRNA [5]: 1.27 Fold of mESC; Rad51 mRNA [5]: 0.34 Fold of mESC; Pgc1a mRNA [5]: 0.27 Fold of untreated control; Cldn5 mRNA [5]: 4.85 Fold of EC d4 or d6; Ocln mRNA [5]: 1.87 Fold of EC d4 or d6; Tjp1 mRNA [5]: 1.07 Fold of EC d4 or d6
